Measured values reported in the NIST ThermoML archive (doi:10.1021/je200279q).
Numbers after ± are expanded uncertainties.

Legend:
[1] = 298.15 K; 101.33 kPa; Liquid; Pycnometric method
[2] = refractive index (Na D-line) (dimensionless); settings: 298.15 K; 101.33 kPa; Liquid; Standard Abbe refractometry

Structure (SMILES) | mass density [1] [kg/m3] | refractive index [2]
CC(C)CC(C)(C)C [2,2,4-trimethylpentane] | 687.5 ± 0.7 | 1.3892 ± 0.0008
CCCCO [butan-1-ol] | 805.8 ± 0.7 | 1.3973 ± 0.0007
CCCO [propan-1-ol] | 799.5 ± 0.7 | 1.3833 ± 0.0007
